Experiment [1] has as its system kidney cancer (OU-31) cell line. Also noted: concentration or dose not given beside the values. The following applies: cited from earlier work.
The subject of experiment [2] is A549 cells. Conditions: cited from earlier work.
In experiment [3] the test system is human colon epithelial (HT-29) cells. The following applies: cited from earlier work.
The subject of experiment [4] is kidney fibroblast (BHK-21) cells. Conditions: cited from earlier work.
The test system of experiment [5] is hepatocellular carcinoma (Hep3 B), human breast adenocarcinoma (MCF-7), human cervical carcinoma (HeLa). Conditions: against all tested cancer cells; cited from earlier work.
The test system of experiment [6] is CCD-19Lu normal lung fibroblast cells. Kind of experiment: MTT assay, in vitro cytotoxic activity on CCD-19Lu. The experiment is classed as cell-based. The following applies: 24 hour incubation; for IC50: Homo sapiens, CCD 19Lu, read-out: IC50 values (µg/mL) CCDLul9 cell line. How it is done:
(§1) The in vitro cytotoxic effects of the compounds were determined with the MTT assay. For this purpose, MTT test was performed using A549 and CCD-19Lu cell lines. After the cell lines used in the invention were centrifuged following taking them out from liquid nitrogen (-196 °C), the cells were cultured in a CO2 incubator comprising 5% CO2 at 37 °C in flasks containing 10% fetal bovine serum (FBS), where CCD-19Lu cells were cultured with Dulbecco's Modified Eagle's Medium (DMEM) and A549 cells were cultured with Roswell Park Memorial Institute (RPMI). The cells that reach the sufficient number for the assay, were seeded to 96 well plates such that 2×10^3 cells were placed in each well and at the same time, components at concentrations of 1-500 µg/mL were added to cells and they were incubated at 37 °C. At the end of the 24 hour incubation period, the MTT powder (5 mg/mL in 1 × phosphate buffered saline (PBS)) was added to each well (20 µL). After a 2-4 h period under the same conditions, the medium was removed from the plate and 100 µL of DMSO was added to each well to dissolve the dye and kept for 10 minutes. Then the plates were read at a wavelength of 540 nm using ELx808-IU Bio-Tek plate reader. The control cell viability which was not treated with the components was accepted to be 100% and the viability rates of the cells were expressed as %. […] According to the results obtained, the dose range was extended until the IC50 value was determined.
MTT assay is a frequently used method which measures the cytotoxic effects of the compounds on the cells by converting the yellow colored MTT stain into purple colored formazan crystals via the mitochondrial succinate dehydrogenase activity. In the cytotoxic activity tests of the compounds, A549 lung adenocarcinoma and CCDLu19 normal lung fibroblast cell lines were used.
In general terms: Tetrazolium assays rely on reduction of a dye to a coloured formazan, in cell work by metabolically active cells.

Experiment [7] relates to A549 human lung adenocarcinoma cells. Kind of experiment: MTT assay, in vitro cytotoxic activity on A549. The class given is cell-based. The following applies: Homo sapiens, A549, 24 hour incubation, read-out: IC50 values (µg/mL) A549 cell line. The method, then: as §1, with “determined. MTT assay is a frequently used method which measures the cytotoxic effects of the compounds on the cells by converting the yellow colored MTT stain into purple colored formazan crystals via the mitochondrial succinate dehydrogenase activity. In the cytotoxic activity tests of the compounds, A549 lung adenocarcinoma and CCDLu19 normal lung fibroblast cell lines were used.” for “determined.”

Experiment [8] has as its system Akt. As to the kind of experiment: Akt colorimetric in cell ELISA in A549 cells. The class given is cell-based, human. Conditions: 24 hours. How it is done: After 10.000 cells were seeded in the wells, they were kept in the incubator for 24 hours. […] Briefly, the medium was removed from the wells and 100 µL of 4% formaldehyde was added. The plate was incubated in a fume hood for 15 minutes. Formaldehyde was removed and the plate was washed twice with 1X […] (TBS) such as to be 100 µL/well. 1X TBS was removed and 100 µL 1X permeabilization solution was added to each well and it was kept at room temperature for 15 minutes. After the 1X permeabilization solution was removed, the wells were washed with 100 µL 1X TBS once. 1X TBS was removed and 100 µL quenching solution was added to each well and it was kept at room temperature for 20 minutes. Afterwards, this solution was removed. The plate was washed 1 time with 1X TBS and 100 µL blocking solution was added to the wells and it was kept at room temperature for 30 minutes. At the end of this period, the blocking solution was removed and 50 µL primary antibody was added to the wells. The plate was sealed with a cover and it was incubated overnight at 4 °C. The primary antibody was removed and the plate wells were washed 3 times with 100 µL 1X washing solution. After the washing solution was removed, 100 µL diluted horseradish peroxidase (HRP) conjugate was added and it was incubated at room temperature for 30 minutes. Later on this conjugate was removed and 100 µL 3,3',5,5'-tetramethylbenzidine (TMB) […] was added to each well and the absorbance values were read at 450 nm for 30 minutes. The experiment was carried out in triplicate. The values of the blank wells were subtracted from the values of the untreated control and treated cells. The Akt activity% was determined as the relative absorbance of treated versus untreated control cells.
(In general: In an ELISA, binding on a coated surface is turned into a signal by an enzyme label.)

In brackets after ≈: the same amount, converted by molar mass. Several values for one entry are separate records, joined by “and”; a condition that tells them apart may be missing. Equal entries are not always repeated. Where only a bound is given, the exact number is not on record here.

`O=C(CSc1nnc2n1N=C(c1ccc(Br)cc1)CS2)c1ccc(Br)cc1` [1-(4-bromophenyl)-2-((6-(4-bromophenyl)-7H-[1,2,4]triazolo[3,4-b][1,3,4]thiadiazine-3-yl)thio)ethanone]: the growth in experiment [1] is 46.76%; in experiment [2], 58.58%. For the same compound, the figures for the inhibition in experiment [1] and in experiment [2] were 53.24% and 41.42%, respectively.

On to `O=C(CSc1nnc2n1N=C(c1ccc(F)cc1)CS2)c1ccc(F)cc1` [1-(4-fluorophenyl)-2-((6-(4-fluorophenyl)-7H-[1,2,4]triazolo[3,4-b][1,3,4]thiadiazine-3-yl)thio)ethanone], for which, in experiment [1], the growth is given as 47.42% and the inhibition – broadly, how much of the control response was suppressed – is listed as 52.58%.

Regarding `CS(=O)(=O)c1ccc(Cc2nnc3n2N=C(c2ccccc2)CS3)cc1` [3-(4-(methylsulfonyl)benzyl)-6-phenyl-7H-[1,2,4]triazolo[3,4-b][1,3,4]thiadiazine], in experiment [3], the IC50 is 25 µM.

As to `Cc1ccc(C2=Nn3c(nnc3-c3ccncc3)SC2)cc1` [3-(pyridine-4-yl)-6-(p-tolyl)-7H-[1,2,4]triazolo[3,4-b][1,3,4]thiadiazine], the inhibition in experiment [4] is recorded as 72.6%.

Take `CCCCC/C=C\CC[C@H](O)CCCCCCCc1nnc2n1N=C(c1ccccc1)CS2` [3-[(8R,11Z)-8-hydroxyheptadec-11-enyl]-6-phenyl-7H-1,2,4-triazolo[3,4-b]-1,3,4-thiadiazine]: the IC50 in experiment [5] is less than 8.83 µM.

Regarding `CCCCCC[C@@H](O)C/C=C\CCCCCCCc1nnc2n1N=C(c1ccccc1)CS2` [3-[(8Z,11R)-11-hydroxyheptadec-8-enyl]-6-phenyl-7H-1,2,4-triazolo[3,4-b]-1,3,4-thiadiazine], the IC50 in experiment [5] was less than 8.83 µM.

For `COc1cccc(C2=Nn3c(nnc3-c3ccncc3)SC2)c1` [6-(3-Methoxyphenyl)-3-(pyridine-4-yl)-7H-[1,2,4]triazolo[3,4-b][1,3,4]thiadiazine], the inhibition in experiment [4] is 73.3%.

Turning to `c1ccc(C2=Nn3c(CCc4ccc5c(c4)OCO5)nnc3SC2)cc1` [Compound 1, 3-[2-(1,3-Benzodioxole-5-yl)ethyl]-6-phenyl-7H-[1,2,4]triazolo[3,4-b][1,3,4]thiadiazine], the IC50 in experiment [6] was less than 3.9 µg/mL; in experiment [7], 103 ± 11.5 µg/mL (≈ 284 µM).

For `O=[N+]([O-])c1ccc(C2=Nn3c(CCc4ccc5c(c4)OCO5)nnc3SC2)cc1` [Compound 2, 3-[2-(1,3-Benzodioxole-5-yl)ethyl]-6-(4-nitrophenyl)-7H-[1,2,4]triazolo[3,4-b][1,3,4]thiadiazine], the figures for the IC50 in experiment [6] and in experiment [7] were 3.93 ± 0.06 µg/mL (≈ 9.6 µM) and 380 ± 70.7 µg/mL (≈ 928 µM), respectively.

For `N#Cc1ccc(C2=Nn3c(CCc4ccc5c(c4)OCO5)nnc3SC2)cc1` [Compound 3, 3-[2-(1,3-Benzodioxole-5-yl)ethyl]-6-(4-cyanophenyl)-7H-[1,2,4]triazolo[3,4-b] [1,3,4]thiadiazine], the IC50 in experiment [6] and in experiment [7] was more than 500 µg/mL in each case.

For the compound `Fc1ccc(C2=Nn3c(CCc4ccc5c(c4)OCO5)nnc3SC2)cc1` [Compound 4, 3-[2-(1,3-Benzodioxole-5-yl)ethyl]-6-(4-fluorophenyl)-7H-[1,2,4]triazolo[3,4-b] [1,3,4]thiadiazine], the values for the IC50 in experiment [6] and in experiment [7] were more than 500 µg/mL and 325 ± 35.4 µg/mL (≈ 850 µM), respectively.

Consider `Clc1ccc(C2=Nn3c(CCc4ccc5c(c4)OCO5)nnc3SC2)cc1` [Compound 5, 3-[2-(1,3-Benzodioxole-5-yl)ethyl]-6-(4-chlorophenyl)-7H-[1,2,4]triazolo[3,4-b] [1,3,4]thiadiazine], for which the IC50 in experiment [6] is less than 3.9 µg/mL; in experiment [7] it was more than 500 µg/mL.

For `Brc1ccc(C2=Nn3c(CCc4ccc5c(c4)OCO5)nnc3SC2)cc1` [Compound 6, 3-[2-(1,3-Benzodioxole-5-yl)ethyl]-6-(4-bromophenyl)-7H-[1,2,4]triazolo[3,4-b] [1,3,4]thiadiazine], the IC50 in experiment [6] is less than 3.9 µg/mL; in experiment [7] it was 307 ± 58.6 µg/mL (≈ 692 µM).

Regarding `COc1ccc(C2=Nn3c(CCc4ccc5c(c4)OCO5)nnc3SC2)cc1` [Compound 7, 3-[2-(1,3-Benzodioxole-5-yl)ethyl]-6-(4-methoxyphenyl)-7H-[1,2,4]triazolo[3,4-b] [1,3,4]thiadiazine], the IC50 in experiment [6] is 44.3 ± 1.15 µg/mL (≈ 112 µM); in experiment [7], 45.7 ± 5.51 µg/mL (≈ 116 µM).

Turning to `Cc1ccc(C2=Nn3c(CCc4ccc5c(c4)OCO5)nnc3SC2)cc1` [Compound 8, 3-[2-(1,3-Benzodioxole-5-yl)ethyl]-6-(4-methylphenyl)-7H-[1,2,4] triazolo [3,4-b] [1,3,4]thiadiazine], the IC50 in experiment [6] is 14.7 ± 6.43 µg/mL (≈ 38.8 µM); in experiment [7] it was more than 500 µg/mL.

On to `c1ccc2cc(C3=Nn4c(CCc5ccc6c(c5)OCO6)nnc4SC3)ccc2c1` [Compound 10, 3-[2-(1,3-Benzodioxole-5-yl)ethyl]-6-(naphthalene-2-yl)-7H-[1,2,4]triazolo [3,4-b][1,3,4]thiadiazine], for which, in experiment [6], the “IC50 values (µg/mL) CCDLul9 cell line” value is reported as less than 3.90 µg/mL and the IC50 was less than 3.9 µg/mL. In experiment [7], the IC50 is 4.1 ± 0.14 µg/mL (≈ 9.89 µM).

Take `Clc1cccc(C2=Nn3c(CCc4ccc5c(c4)OCO5)nnc3SC2)c1` [Compound 13, 3-[2-(1,3-Benzodioxole-5-yl)ethyl]-6-(3-chlorophenyl)-7H-[1,2,4]triazolo[3,4-b][1,3,4]thiadiazine]: the IC50 in experiment [6] and in experiment [7] was more than 500 µg/mL throughout.

As for `c1csc(-c2ccc(C3=Nn4c(CCc5ccc6c(c5)OCO6)nnc4SC3)cc2)c1` [Compound 15, 3-[2-(1,3-Benzodioxole-5-yl)ethyl] -6-(4-(thiophen-2-yl)phenyl)-7H-[1,2,4] triazolo [3,4-b] [1,3,4]thiadiazine], the “IC50 values (µg/mL) CCDLul9 cell line” value in experiment [6] was less than 3.90 µg/mL. Moreover, the IC50 is less than 3.9 µg/mL in experiment [6] and 4 ± 0.2 µg/mL (≈ 8.96 µM) in experiment [7].

Turning to `CCn1c(-c2nonc2N)nc2c(C#CC(C)(C)O)ncc(OC[C@H]3CCCNC3)c21` [GSK690693, reference compound], the “Akt Inhibition%” value in experiment [8] (IC50/2 concentration (9: 2.88; 11: 0.37; 12: 0.40; 14: 1.32; GSK690693: 3.34; Cisplatin: 11.50 µg/mL)) was 60.56±3.04%; in experiment [8] (IC50/4 concentration (9: 1.44; 11: 0.18; 12: 0.20; 14: 0.66; GSK690693: 1.69; Cisplatin: 5.75 µg/mL)) it was 59.23±9.77%; in experiment [8] (IC50 concentration (9: 5.75; 11: 0.73; 12: 0.80; 14: 2.63; GSK690693: 6.75; Cisplatin: 23.00 µg/mL)) it was 61.67% and 61.67±1.21%. Besides, the IC50 in experiment [7] came out at 6.75 ± 1.06 µg/mL (≈ 15.9 µM).

Source of the values: patent publication EP3958980B1, “TARGETED NOVEL TRIAZOLOTHIADIAZINE DERIVATIVES FOR THE TREATMENT OF LUNG CANCER” (Anadolu Universitesi, priority 2020, dated 2021).
